# Data reported in US20230110595A1, “MIXTURE OF PYRETHROIDS AND MILBEMYCINS AND USES THEREOF” (Valent BioSciences LLC, priority 2021, published 2023).
# Experiments:
# Type in all cases: in vivo
# [1] = system: Permethrin Resistant C. quinquefasciatus; test: Wind tunnel bioassay, adult mosquitoes, Example 2 (September 2021)
# Description: (§1) In this bioassay, a wind tunnel bioassay was performed in the United States of America in September 2021. Culex quinquefasciatus that were known to be resistant and susceptible to permethrin were used in the studies. The following solutions were applied to adult C. quinquefasciatus mosquitoes: 1) 0.5% moxidectin; 2) 0.5% pyrethrum; and 3) a mixture of 0.5% pyrethrum and 0.5% moxidectin.
# (§2) Percent mortality was recorded at 15 minutes (“Min”), 1 hour (“Hr”), 24 hours and 48 hours. OCE:ECE ratios were calculated as in Example 1, above.
# [2] = system: Permethrin Susceptible C. quinquefasciatus; test: as above
# Description: as §1, §2
# [3] = system: Permethrin Resistant C. quinquefasciatus; test: Wind tunnel bioassay, adult mosquitoes, Example 1 (May 2021)
# Description: as §1, with “in May” for “in September”, “1) 1.5%” for “1) 0.5%”, “2) 5% permethrin; 3) 2.5%” for “2) 0.5%”, “pyrethrum; 4)” for “pyrethrum; and 3)”, “of 5% permethrin and 1.5% moxidectin; and 5) a mixture of 2.5%” for “of 0.5%”, “and 1.5%” for “and 0.5%”
# (§3) To determine if the mixtures provided unexpected results, the observed combined efficacy (“OCE”) was divided by the expected combined efficacy (“ECE”) wherein the expected ECE is calculated by the Abbott method: […]
# (§4) wherein ECE is the expected combined efficacy and in which A and B are the percent control given by the single active ingredients. If the ratio between the OCE of the mixture and the ECE of the mixture is greater than 1, then greater than expected interactions are present in the mixture. (Gisi, Synergistic Interaction of Fungicides in Mixtures, The American Phytopathological Society, 86:11, 1273-1279, 1996). Percent mortality was recorded at 15 minutes (“Min”), 1 hour (“Hr”), 24 hours and 48 hours.
# [4] = system: Permethrin Susceptible C. quinquefasciatus; test: as above
# Description: as §1, with “in May” for “in September”, “1) 1.5%” for “1) 0.5%”, “2) 5% permethrin; 3) 2.5%” for “2) 0.5%”, “pyrethrum; 4)” for “pyrethrum; and 3)”, “of 5% permethrin and 1.5% moxidectin; and 5) a mixture of 2.5%” for “of 0.5%”, “and 1.5%” for “and 0.5%”
# as §3, §4
Compound,% Mortality ([1]; 1 Hr),% Mortality ([1]; 15 Min),% Mortality ([1]; 24 Hr),% Mortality ([1]; 48 Hr),% Mortality ([2]; 1 Hr),% Mortality ([2]; 15 Min),% Mortality ([2]; 24 Hr),% Mortality ([2]; 48 Hr),% Mortality ([3]; 1 Hr),% Mortality ([3]; 15 Min),% Mortality ([3]; 24 Hr),% Mortality ([3]; 48 Hr),% Mortality ([4]; 1 Hr),% Mortality ([4]; 15 Min),% Mortality ([4]; 24 Hr),% Mortality ([4]; 48 Hr),control ([4]; span over 15 minutes to 48 hours)
"CO/N=C1\C[C@]2(C[C@@H]3C[C@@H](C/C=C(\C)C[C@@H](C)/C=C/C=C4\CO[C@@H]5[C@H](O)C(C)=C[C@@H](C(=O)O3)[C@]45O)O2)O[C@H](/C(C)=C/C(C)C)[C@H]1C [0.5% Moxidectin, moxidectin]",0.00%,0.00%,11.25%,8.75%,26.25%,1.25%,95.00%,95.00%,–,–,–,–,–,–,–,–,–
"CC1(C)C(C=C(Cl)Cl)C1C(=O)OCc1cccc(Oc2ccccc2)c1 (stereo not shown) [5% Permethrin, permethrin]",–,–,–,–,–,–,–,–,81.25%,35%,97.5%,96.25%,100%,100%,100%,100%,~100%
"CO/N=C1\C[C@]2(C[C@@H]3C[C@@H](C/C=C(\C)C[C@@H](C)/C=C/C=C4\CO[C@@H]5[C@H](O)C(C)=C[C@@H](C(=O)O3)[C@]45O)O2)O[C@H](/C(C)=C/C(C)C)[C@H]1C [1.5% Moxidectin, moxidectin]",–,–,–,–,–,–,–,–,0%,15%,68.75%,50%,67.5%,53.75%,92.5%,92.5%,–
